Measurements from the kinase profiling compilation of Christmann-Franck et al. (2016).

Experiments:
Test in all cases: radiometric filter-binding kinase assay, Kinase HotSpot
Details in all cases: compound 0.5 µM; ATP 10 µM
[1] = target: ADRBK1 (human) (UniProt P25098)
[2] = target: AXL (human) (UniProt P30530)
[3] = target: BMX (human) (UniProt P51813)
[4] = target: BRSK1 (human) (UniProt Q8TDC3)
[5] = target: BTK (human) (UniProt Q06187)
[6] = target: CAMKK1 (human) (UniProt Q8N5S9)
[7] = target: CDK1 CCNB1 (human) (UniProt P06493+P14635)
[8] = target: CHEK2 (human) (UniProt O96017)
[9] = target: CSNK1G2 (human) (UniProt P78368)
CSNK1G2 (human), sequence (P78368 whole entry, looked up): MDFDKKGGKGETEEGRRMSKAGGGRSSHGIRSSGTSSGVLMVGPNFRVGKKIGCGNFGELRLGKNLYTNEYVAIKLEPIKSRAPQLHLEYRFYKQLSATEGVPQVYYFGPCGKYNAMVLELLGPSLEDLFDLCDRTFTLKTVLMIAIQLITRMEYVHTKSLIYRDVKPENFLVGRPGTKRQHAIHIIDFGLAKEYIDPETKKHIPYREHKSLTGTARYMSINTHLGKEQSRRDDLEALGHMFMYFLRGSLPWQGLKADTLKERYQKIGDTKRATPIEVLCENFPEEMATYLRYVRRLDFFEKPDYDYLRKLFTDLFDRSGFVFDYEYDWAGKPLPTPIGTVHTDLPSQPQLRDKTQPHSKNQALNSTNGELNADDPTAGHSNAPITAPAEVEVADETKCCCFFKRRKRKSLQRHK

[10] = target: DAPK3 (human) (UniProt O43293)
[11] = target: DDR2 (human) (UniProt Q16832)
[12] = target: DYRK2 (human) (UniProt Q92630)
[13] = target: DYRK3 (human) (UniProt O43781)
[14] = target: DYRK4 (human) (UniProt Q9NR20)
[15] = target: EGFR (human) (UniProt P00533)
EGFR (human), sequence (P00533 whole entry, looked up): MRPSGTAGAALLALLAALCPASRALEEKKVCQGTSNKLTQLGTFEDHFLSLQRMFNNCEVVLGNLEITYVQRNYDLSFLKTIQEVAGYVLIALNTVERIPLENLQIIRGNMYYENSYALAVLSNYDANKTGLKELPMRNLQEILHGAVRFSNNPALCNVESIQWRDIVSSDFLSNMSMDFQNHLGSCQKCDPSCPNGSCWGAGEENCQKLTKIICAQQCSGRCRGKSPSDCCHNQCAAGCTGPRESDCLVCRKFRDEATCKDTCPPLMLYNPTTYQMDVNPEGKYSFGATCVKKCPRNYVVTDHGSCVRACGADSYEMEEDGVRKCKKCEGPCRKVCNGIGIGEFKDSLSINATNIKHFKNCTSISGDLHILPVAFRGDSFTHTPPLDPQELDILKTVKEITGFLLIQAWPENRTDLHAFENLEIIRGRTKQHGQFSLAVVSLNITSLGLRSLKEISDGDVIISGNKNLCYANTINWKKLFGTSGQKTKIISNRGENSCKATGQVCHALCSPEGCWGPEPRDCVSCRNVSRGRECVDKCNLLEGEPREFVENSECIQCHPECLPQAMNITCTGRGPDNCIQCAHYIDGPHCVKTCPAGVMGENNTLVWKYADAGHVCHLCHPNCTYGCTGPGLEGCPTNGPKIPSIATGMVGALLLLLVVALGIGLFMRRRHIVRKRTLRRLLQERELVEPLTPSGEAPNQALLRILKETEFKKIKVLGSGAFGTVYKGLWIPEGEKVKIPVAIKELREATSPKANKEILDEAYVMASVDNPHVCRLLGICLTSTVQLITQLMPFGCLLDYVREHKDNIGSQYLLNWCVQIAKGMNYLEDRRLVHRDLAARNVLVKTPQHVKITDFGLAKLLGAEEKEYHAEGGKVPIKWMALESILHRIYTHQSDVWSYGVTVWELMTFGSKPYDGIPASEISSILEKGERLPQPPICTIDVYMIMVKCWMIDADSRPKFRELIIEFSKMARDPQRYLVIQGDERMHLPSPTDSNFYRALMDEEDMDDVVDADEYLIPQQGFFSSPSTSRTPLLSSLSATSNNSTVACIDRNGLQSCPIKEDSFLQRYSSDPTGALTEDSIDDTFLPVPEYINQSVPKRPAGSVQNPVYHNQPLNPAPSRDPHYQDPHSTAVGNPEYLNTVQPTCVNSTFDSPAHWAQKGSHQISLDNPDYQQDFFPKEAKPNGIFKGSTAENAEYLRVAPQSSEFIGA

[16] = target: EPHA1 (human) (UniProt P21709)
[17] = target: EPHA7 (human) (UniProt Q15375)
[18] = target: FRK (human) (UniProt P42685)
FRK (human), sequence (P42685 whole entry, looked up): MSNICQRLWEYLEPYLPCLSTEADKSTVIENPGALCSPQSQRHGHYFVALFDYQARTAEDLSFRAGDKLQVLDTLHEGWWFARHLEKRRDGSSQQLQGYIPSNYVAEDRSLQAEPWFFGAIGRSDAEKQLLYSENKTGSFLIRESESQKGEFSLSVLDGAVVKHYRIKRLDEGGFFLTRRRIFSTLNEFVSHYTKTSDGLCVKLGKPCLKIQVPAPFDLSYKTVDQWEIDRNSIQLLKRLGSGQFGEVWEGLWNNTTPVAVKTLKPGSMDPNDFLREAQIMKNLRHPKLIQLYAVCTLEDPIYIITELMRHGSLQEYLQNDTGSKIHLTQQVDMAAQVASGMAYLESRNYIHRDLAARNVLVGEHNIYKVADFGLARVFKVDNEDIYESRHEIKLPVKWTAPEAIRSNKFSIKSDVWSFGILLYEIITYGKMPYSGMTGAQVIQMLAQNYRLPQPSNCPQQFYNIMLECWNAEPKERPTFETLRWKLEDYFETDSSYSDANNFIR

[19] = target: GRK5 (human) (UniProt P34947)
[20] = target: GRK7 (human) (UniProt Q8WTQ7)
[21] = target: INSRR (human) (UniProt P14616)
[22] = target: LTK (human) (UniProt P29376)
[23] = target: MAP2K1 (human) (UniProt Q02750)
[24] = target: MAP3K14 (human) (UniProt Q99558)
MAP3K14 (human), sequence (Q99558 whole entry, looked up): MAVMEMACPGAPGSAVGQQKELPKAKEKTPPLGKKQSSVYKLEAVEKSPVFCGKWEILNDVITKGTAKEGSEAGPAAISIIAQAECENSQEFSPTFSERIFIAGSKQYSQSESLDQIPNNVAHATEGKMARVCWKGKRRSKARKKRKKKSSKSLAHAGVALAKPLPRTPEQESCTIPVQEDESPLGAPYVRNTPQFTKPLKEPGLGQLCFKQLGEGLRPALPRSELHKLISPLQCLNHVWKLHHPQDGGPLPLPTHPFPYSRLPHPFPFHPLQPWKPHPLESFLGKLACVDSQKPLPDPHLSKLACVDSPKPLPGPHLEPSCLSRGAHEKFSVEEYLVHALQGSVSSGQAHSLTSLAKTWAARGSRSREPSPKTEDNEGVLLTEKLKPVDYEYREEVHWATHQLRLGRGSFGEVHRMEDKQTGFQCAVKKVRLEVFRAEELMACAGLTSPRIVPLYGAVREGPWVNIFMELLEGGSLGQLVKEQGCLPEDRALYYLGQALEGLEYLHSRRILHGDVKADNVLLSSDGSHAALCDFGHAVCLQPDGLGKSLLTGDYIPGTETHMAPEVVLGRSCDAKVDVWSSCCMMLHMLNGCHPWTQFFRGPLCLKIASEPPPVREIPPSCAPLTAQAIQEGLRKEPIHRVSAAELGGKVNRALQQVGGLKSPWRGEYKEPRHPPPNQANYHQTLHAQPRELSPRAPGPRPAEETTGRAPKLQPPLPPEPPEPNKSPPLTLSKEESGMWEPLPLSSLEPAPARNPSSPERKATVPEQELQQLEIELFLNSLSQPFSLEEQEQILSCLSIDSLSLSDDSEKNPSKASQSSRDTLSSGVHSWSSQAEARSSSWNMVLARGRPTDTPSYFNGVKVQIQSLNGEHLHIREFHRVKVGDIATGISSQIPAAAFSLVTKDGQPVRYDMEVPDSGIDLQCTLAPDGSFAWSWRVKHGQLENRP

[25] = target: MAP3K5 (human) (UniProt Q99683)
[26] = target: MAP4K2 (human) (UniProt Q12851)
[27] = target: MARK2 (human) (UniProt Q7KZI7)
[28] = target: MYO3B (human) (UniProt Q8WXR4)
[29] = target: NEK2 (human) (UniProt P51955)
[30] = target: PHKG1 (human) (UniProt Q16816)
[31] = target: PRKACG (human) (UniProt P22612)
PRKACG (human), sequence (P22612 whole entry, looked up): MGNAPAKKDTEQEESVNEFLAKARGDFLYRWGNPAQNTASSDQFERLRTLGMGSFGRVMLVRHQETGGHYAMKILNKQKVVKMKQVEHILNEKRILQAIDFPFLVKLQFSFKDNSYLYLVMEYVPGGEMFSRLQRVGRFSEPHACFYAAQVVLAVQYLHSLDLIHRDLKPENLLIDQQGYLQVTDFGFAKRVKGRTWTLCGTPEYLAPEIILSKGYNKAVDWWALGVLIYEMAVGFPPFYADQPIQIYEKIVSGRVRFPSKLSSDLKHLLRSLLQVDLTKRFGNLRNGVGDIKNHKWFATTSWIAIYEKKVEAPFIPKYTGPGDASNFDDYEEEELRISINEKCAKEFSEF

[32] = target: PRKCB2 (human) (UniProt P05771)
[33] = target: PRKCD (human) (UniProt Q05655)
[34] = target: PRKCZ (human) (UniProt Q05513)
[35] = target: PRKX (human) (UniProt P51817)
[36] = target: SRPK2 (human) (UniProt P78362)
[37] = target: SRPK3 (human) (UniProt Q9UPE1)
[38] = target: STK33 (human) (UniProt Q9BYT3)
[39] = target: STK39 (human) (UniProt Q9UEW8)
[40] = target: TEK (human) (UniProt Q02763)
[41] = target: TXK (human) (UniProt P42681)
[42] = target: VRK1 (human) (UniProt Q99986)

BTK (human), sequence (Q06187 whole entry, looked up): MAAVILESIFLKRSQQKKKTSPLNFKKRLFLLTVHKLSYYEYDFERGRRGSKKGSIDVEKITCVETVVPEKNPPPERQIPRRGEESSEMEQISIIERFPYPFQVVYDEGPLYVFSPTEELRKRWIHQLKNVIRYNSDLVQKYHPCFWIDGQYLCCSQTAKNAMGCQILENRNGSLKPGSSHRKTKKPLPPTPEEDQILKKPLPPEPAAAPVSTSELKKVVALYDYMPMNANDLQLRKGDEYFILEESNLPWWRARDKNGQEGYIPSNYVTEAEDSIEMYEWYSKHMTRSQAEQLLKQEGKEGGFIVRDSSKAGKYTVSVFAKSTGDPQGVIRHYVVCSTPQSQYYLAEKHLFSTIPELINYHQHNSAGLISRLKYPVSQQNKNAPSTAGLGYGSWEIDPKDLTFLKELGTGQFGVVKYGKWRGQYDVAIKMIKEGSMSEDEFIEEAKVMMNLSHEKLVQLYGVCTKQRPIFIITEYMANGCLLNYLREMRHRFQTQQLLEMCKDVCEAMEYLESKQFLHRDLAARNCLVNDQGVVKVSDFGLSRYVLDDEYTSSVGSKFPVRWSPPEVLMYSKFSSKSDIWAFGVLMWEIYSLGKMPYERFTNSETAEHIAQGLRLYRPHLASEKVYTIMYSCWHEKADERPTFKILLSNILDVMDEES
AXL (human), sequence (P30530 whole entry, looked up): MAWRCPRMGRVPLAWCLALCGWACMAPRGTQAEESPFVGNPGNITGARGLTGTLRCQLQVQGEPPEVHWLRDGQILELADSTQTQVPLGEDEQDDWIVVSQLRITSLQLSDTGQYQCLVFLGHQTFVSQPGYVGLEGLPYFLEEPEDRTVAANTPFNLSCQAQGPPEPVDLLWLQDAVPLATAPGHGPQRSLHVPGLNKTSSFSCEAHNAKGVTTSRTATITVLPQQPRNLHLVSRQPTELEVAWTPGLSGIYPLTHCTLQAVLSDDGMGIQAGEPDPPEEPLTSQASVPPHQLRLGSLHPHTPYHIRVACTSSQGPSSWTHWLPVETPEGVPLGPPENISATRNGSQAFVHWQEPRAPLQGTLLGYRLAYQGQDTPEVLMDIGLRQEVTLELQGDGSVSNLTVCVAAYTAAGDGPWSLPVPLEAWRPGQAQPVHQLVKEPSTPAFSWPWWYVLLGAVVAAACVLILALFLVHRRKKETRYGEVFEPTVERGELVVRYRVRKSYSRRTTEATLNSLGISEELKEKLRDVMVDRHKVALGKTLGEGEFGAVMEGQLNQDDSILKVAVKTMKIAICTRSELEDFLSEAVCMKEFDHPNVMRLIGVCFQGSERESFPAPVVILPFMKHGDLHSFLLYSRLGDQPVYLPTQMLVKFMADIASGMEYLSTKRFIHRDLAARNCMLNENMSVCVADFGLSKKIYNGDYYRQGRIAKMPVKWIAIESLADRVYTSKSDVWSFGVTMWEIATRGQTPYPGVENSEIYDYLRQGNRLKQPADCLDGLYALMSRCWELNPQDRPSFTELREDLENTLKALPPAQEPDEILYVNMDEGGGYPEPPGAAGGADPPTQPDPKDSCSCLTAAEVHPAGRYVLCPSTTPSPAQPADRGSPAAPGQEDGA

O=C1NC(=O)c2c1c1c3ccccc3n3c1c1c2c2ccccc2n1C1CCC3O1
residual activity [1]: 97.9% | residual activity [2]: 38.1% | residual activity [3]: 27.5% | residual activity [4]: 14.8% | residual activity [5]: 43.3% | residual activity [6]: 27.2% | residual activity [7]: 29.9% | residual activity [8]: 13% | residual activity [9]: 81.8% | residual activity [10]: 24.6% | residual activity [11]: 80.1% | residual activity [12]: 5.94% | residual activity [13]: 16.6% | residual activity [14]: 87.8% | residual activity [15]: 78.3% | residual activity [16]: 90.1% | residual activity [17]: 69.2% | residual activity [18]: 102% | residual activity [19]: 88.7% | residual activity [20]: 53.4% | residual activity [21]: 7.16% | residual activity [22]: 21.8% | residual activity [23]: 29.5% | residual activity [24]: 134% | residual activity [25]: 56.2% | residual activity [26]: 3.75% | residual activity [27]: 4.88% | residual activity [28]: 19.1% | residual activity [29]: 93.8% | residual activity [30]: 2.75% | residual activity [31]: 39.8% | residual activity [32]: 6.42% | residual activity [33]: 19% | residual activity [34]: 87.4% | residual activity [35]: 17.5% | residual activity [36]: 107% | residual activity [37]: 63.6% | residual activity [38]: 12.7% | residual activity [39]: 88.3% | residual activity [40]: 94.1% | residual activity [41]: 22.7% | residual activity [42]: 90.2%
